Reference: ChEMBL document CHEMBL1149901, “Complex sesquiterpenoids with tyrosinase inhibitory activity from the leaves of Chloranthus tianmushanensis” (J Nat Prod, 2008)
Calls of active or inactive are those of the source. The rule behind the calls is not given here.

Biological target: T1, Tyrosinase (Agaricus bisporus, UniProt O42713)
T1 sequence (O42713 whole entry): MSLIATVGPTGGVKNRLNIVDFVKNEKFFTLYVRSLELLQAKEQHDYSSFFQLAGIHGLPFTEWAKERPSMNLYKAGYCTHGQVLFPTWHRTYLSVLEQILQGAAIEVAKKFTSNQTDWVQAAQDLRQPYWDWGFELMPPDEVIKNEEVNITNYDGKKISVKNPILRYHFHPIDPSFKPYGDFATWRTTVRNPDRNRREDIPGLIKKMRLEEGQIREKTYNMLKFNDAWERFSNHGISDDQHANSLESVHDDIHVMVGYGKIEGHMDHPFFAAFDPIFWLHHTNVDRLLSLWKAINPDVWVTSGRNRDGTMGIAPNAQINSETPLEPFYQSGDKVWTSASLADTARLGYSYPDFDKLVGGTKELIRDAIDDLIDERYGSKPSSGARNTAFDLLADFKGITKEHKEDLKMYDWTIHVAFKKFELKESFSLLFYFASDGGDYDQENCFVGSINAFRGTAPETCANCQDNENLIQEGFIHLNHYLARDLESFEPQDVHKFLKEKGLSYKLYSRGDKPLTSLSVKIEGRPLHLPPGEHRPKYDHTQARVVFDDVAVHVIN
Description: Inhibition of Mushroom tyrosinase

Row | Structure (SMILES) | IC50
1 | CO[C@@]12OC(=O)C(C)=C1C1=C3[C@](C)([C@@H]4C[C@@H]4[C@@]3(O)C[C@@H]3[C@]14OC(=O)C1=C4C[C@H]4[C@](O)(COC(=O)/C(C)=C/COC(=O)CCC(=O)OC1)[C@H]1C[C@H]1[C@]34C)[C@H]2O | 312 µM
2 | CC1=C2C3=C4[C@](C)([C@@H]5C[C@@H]5[C@@]4(O)C[C@@H]4[C@]35OC(=O)C3=C5C[C@H]5[C@](O)(COC(=O)/C(C)=C/COC(=O)CCC(=O)OC3)[C@H]3C[C@H]3[C@]45C)[C@@H](O)[C@]2(O)OC1=O [TIANMUSHANOL] | 358 µM

Biological target: T2, Tyrosinase (Agaricus bisporus) (UniProt O42713)
T2 sequence (whole entry): T1 sequence (O42713 whole entry)
Description: Inhibition of Mushroom tyrosinase

Row | Structure (SMILES) | Activity
3 | C/C1=C\Cc2c(C)coc2C/C(C)=C/CC1 | inactive
4 | CC1=C2C/C=C(\C)CC/C=C(\C)C[C@@H]2OC1=O | inactive
5 | C=C1[C@H]2C[C@H]2[C@]2(C)C=C3OC(=O)C(C)=C3C[C@@H]12 | inactive
6 | C=C1CCC[C@]2(C)C[C@]3(O)OC(=O)C(C)=C3C[C@@H]12 | inactive
